Test results taken from US8911953B2, “TDF-related compounds and analogs thereof, analogs and bioactive fragments” (Thrasos Innovation, Inc., priority 2005, dated 2014).
Positions of bridges follow the written chain, without caps; N, C: chain ends. No end group written: not given here.

How the values were obtained:
[1] = system: LNCaP; assay: Cancer cell proliferation, tritiated thymidine incorporation; type: cell-based, human; settings: LNCaP cultured in vitro
Source text: (§1) TDFRP Compound Inhibition of LNCaP Cancer Cell Proliferation. BMP-6 and a TDFRP compound (SEQ ID NO:45) inhibited the proliferation of prostate cancer cells (LNCaP and PC-3) cultured in vitro as detected by the incorporation of tritiated thymidine (a measure of cell proliferation.
(§2) Prostate cancer is one of the most common cancers in men. […] Moreover, it has been shown that BMP signals inhibit the growth and the proliferation of human prostate tumor cells by upregulating the cyclin-dependent kinase inhibitor (CDKI) p21 (CIP1/WAF1) and decreasing the activity of Cdk2, leading to hypophosphorylation of Rb proteins. TDFRP compounds have been screened in in vitro prostate and bladder cancer bioassays to assess growth inhibitory activity of the compounds (FIG. 3). ^3H-thymidine incorporation is used as a marker for cell proliferation activity in human prostate and bladder cancer cell lines. Cisplatin inhibits ^3H-thymidine incorporation, indicating a tumor-growth suppressive activity of cisplatin in both human prostate and bladder cancer cells. TDFRP compounds are assayed in these cancer cells for the ability to induce receptor-regulated Smad 1/5 phosphorylation in a dose-dependent manner (FIG.).
as §2, with “(FIGS. 3, 28).” for “(FIG. 3).”, “(FIGS. 3, 28).” for “(FIG.).”

[2] = system: PC-3; assay: as above; type: cell-based, human; settings: PC-3 cultured in vitro
Source text: as §1, §2
as §2, with “(FIGS. 3, 28).” for “(FIG. 3).”, “(FIGS. 3, 28).” for “(FIG.).”

[3] = system: rat osteosarcoma (17/2.8) cells; assay: Rat osteosarcoma (ROS) cell-based alkaline phosphatase assay; settings: 0.02-200 uM, 2 days, relative to BMP-7 standard
Method: BMP interactions with Type I and Type II receptors can induce alkaline phosphatase activity, a marker for osteoblast activity, in ROS cells. An assay procedure as described in Maliakal, J. C., Asahina, I., Hauschka, P. V., and Sampath, T. K. (1994) Growth factors 11, 227-234, was used to determine the biological activities of TDFRP compounds. In a typical experiment, rat osteosarcoma (17/2.8) cells are plated in 96 well plates (3.0×10^4 cells/well) and incubated overnight at 37 C in 5-6% CO2 incubator. The next day, healthy and confluent cells are treated with increasing concentrations of BMP-7 standard (1-10,000 ng/ml) served as positive control or TDFRP compounds (0.02-200 uM) prepared in medium containing 1% FBS and incubated for 2 days at 37 C in 5-6% CO2 incubator. The cellular content of alkaline phosphatase activity is determined by the method of Reddi and Huggins (Reddi, A. H., and Huggins, C. B (1972) Proc. Natl. Acad. Sci. USA 69, 1601-1605). Enzyme estimations are performed in 96 well plates. Following removal of culture medium, cells are washed with pre-warmed PBS (150 ul) and incubated in 100 ul of pre-warmed 1% Triton X-100 for 30 minutes at 37 C. Plates are centrifuged for 10 minutes at full speed, and recovered samples (15 ul) are assayed for enzyme activity by adding 90 ul p-nitrophenyl phosphate (Sigma) as a substrate in 0.05 M glycine-NaOH buffer, pH 9.3 and incubating for 20 minutes at 37 C. The reaction is stopped by adding 75 ul of 0.2 N NaOH/well and absorbance at 405/490 nm is measured on a Dynatech MR 700 plate reader. Results are expressed as relative activities compared to a BMP-7 standard.
BMP interactions with Type I and Type II receptors can induce alkaline phosphatase activity, a marker for osteoblast activity, in ROS cells. An assay procedure as described earlier (Maliakal, J. C., Asahina, I., Hauschka, P. V., and Sampath, T. K. (1994) Growth factors 11, 227-234) was used to determine the biological activities of TDFRP compounds. In a typical experiment, rat osteosarcoma (17/2.8) cells are plated in 96 well plates (3.0×10^4 cells/well) and incubated overnight at 37° C. in 5-6% CO2 incubator. […] The cellular content of alkaline phosphatase activity is determined by the method of Reddi and Huggins (Reddi, A. H., and Huggins, C. B (1972) Proc. Natl. Acad. Sci. USA 69, 1601-1605). […] The reaction is stopped by adding 75 ul of 0.2 N NaOH/well and absorbance at 405/490 nm is measured on a Dynatech MR 700 plate reader. Results are expressed as relative activities compared to a BMP-7 standard.

## CYFDDSSNVLCKKYRS (disulfide 1-11 (inferred); not fully specified) [SEQ ID NO:45]
[1]
  proliferation (incorporation of tritiated thymidine): inhibited
[2]
  proliferation (incorporation of tritiated thymidine): inhibited
[3]
  induction of alkaline phosphatase activity: did not induce
